Consider 16 compounds from PubChem BioAssay (NCI).

Structures are written as SMILES. Where “and” joins values, the source holds several entries; their conditions need not be identical. Equal values may be shown once.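 Values below derive from 48-hour exposures of cells grown in 96-well plates, with endpoints linearly interpolated between the two concentrations bracketing the appropriate inhibition level. At the GI50, growth is halved. TGI: total growth inhibition.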

Test systems include BT-549 breast; HS 578T breast; MCF7 breast; PC-3 prostate.
Test in all cases: inhibition of tumour cell growth, NCI panel, 48 h

`c1ccc(Cn2cnc3ccc(-c4nc(-c5ccc6c(c5)ncn6C5CCCCC5)cn5ccnc45)cc32)cc1`: the GI50 in the assay with BT-549 breast was 1.2 µM; in the assay on HS 578T breast, 2.71 µM; in the assay with MCF7 breast it was 2.72 µM; in the assay with PC-3 prostate, 1.97 µM. Also, the TGI in the assay on BT-549 breast is 2.68 µM; with HS 578T breast, more than 100 µM; in the assay on MCF7 breast, more than 100 µM; in the assay on PC-3 prostate, 7.55 µM.

Turning to `OC(CN1CC1)C(O)CN1CC1` (stereo not given), the GI50 in the assay on BT-549 breast, in the assay on HS 578T breast and in the assay on PC-3 prostate was more than 50 µg/mL each time. Moreover, the TGI in the assay with BT-549 breast, in the assay with HS 578T breast and in the assay with PC-3 prostate was more than 50 µg/mL each time.

Regarding `OB1OCc2cc(/C=C/c3cccc(C(F)(F)F)c3)ccc21`, the GI50 with BT-549 breast is 2.26 µM; in the assay with HS 578T breast, 4.49 µM; in the assay on MCF7 breast, 0.452 µM; with PC-3 prostate, 1.88 µM. The TGI with BT-549 breast was more than 100 µM; in the assay on HS 578T breast it was 66.6 µM; with MCF7 breast, 44.4 µM; in the assay on PC-3 prostate, more than 100 µM.

`CC(=O)N[C@H](C(=O)N[C@@H](CCCNC(=N)N)C(=O)N[C@@H](CCCCN)C(=O)N[C@@H](CCCNC(=N)N)C(=O)N[C@]1(C)CCCCCC/C=C\CCC[C@@](C)(C(=O)N[C@@H](CCCNC(=N)N)C(=O)N[C@@H](CCC(=O)O)C(=O)N[C@@H](CC(C)C)C(=O)N[C@H](C(=O)N[C@@H](CCC(=O)O)C(N)=O)C(C)C)NC(=O)[C@H](CCC(N)=O)NC(=O)[C@H](CC(C)C)NC(=O)[C@H](CC(C)C)NC(=O)[C@H](CCCNC(=N)N)NC(=O)[C@H](CCCNC(=N)N)NC(=O)[C@H](CC(C)C)NC1=O)C(C)C`: the GI50 in the assay on BT-549 breast was 1.44 µM; in the assay on HS 578T breast, 1.46 µM; in the assay with MCF7 breast, 2 µM; in the assay on PC-3 prostate, 8.24 µM. Also, the TGI in the assay on BT-549 breast came to 4.35 µM; in the assay with HS 578T breast, 4.14 µM; in the assay on MCF7 breast, 32.9 µM; in the assay with PC-3 prostate, 23.7 µM.

Regarding `CCC1=C[C@@H]2CN(C1)Cc1c([nH]c3ccccc13)[C@@](C(=O)OC)(c1cc3c(cc1OC)N(C)[C@H]1[C@@](O)(C(=O)OC)[C@H](OC(C)=O)[C@]4(CC)[C@@H]5C[C@@H]5CN5CC[C@]31[C@@H]54)C2`, the TGI in the assay on BT-549 breast is 3.46 µM and 17.5 µM; in the assay with MCF7 breast it was 5.44 µM and 12.6 µM; with PC-3 prostate it was 6.54 µM and 15 µM. The GI50 with MCF7 breast and in the assay on PC-3 prostate was less than 0.005 µM throughout.

On to `O=C1C(Cl)=C(Nc2ccccc2)C(=O)c2ccccc21`, for which the GI50 with BT-549 breast was 1.7 µM; with HS 578T breast, 3.05 µM; in the assay on MCF7 breast, 1.5 µM; in the assay with PC-3 prostate, 3.61 µM. Further, the TGI in the assay with BT-549 breast was found to be 3.09 µM; in the assay with HS 578T breast, 30.5 µM; in the assay with MCF7 breast it was 3.53 µM; with PC-3 prostate it was 22.1 µM.

Take `Cn1c2ccccc2c2c(=O)c3ccccc3[nH]c21`: the GI50 in the assay on BT-549 breast is 73.3 µM; with HS 578T breast, more than 100 µM; in the assay on MCF7 breast, 30.3 µM; in the assay on PC-3 prostate, 27.5 µM. Moreover, the TGI in the assay with BT-549 breast is more than 100 µM; in the assay on HS 578T breast, more than 100 µM; in the assay on MCF7 breast, more than 100 µM; in the assay with PC-3 prostate, 73.2 µM.

For `CN(C)Cc1c[nH]c2c(NCCN)c3c(c(NCCN)c12)C(=O)c1ccccc1C3=O`, the GI50 in the assay on BT-549 breast was 3.52 µM; in the assay on HS 578T breast, 3.38 µM; in the assay on MCF7 breast, 19 µM; in the assay on PC-3 prostate it was 2.34 µM. Further, the TGI in the assay with BT-549 breast came to 9.87 µM; in the assay on HS 578T breast it was 10.9 µM; in the assay on MCF7 breast it was 94.1 µM; with PC-3 prostate, 8.42 µM.

Regarding `NC(=O)c1cccc(Nc2nccc(Nc3cccc(F)c3)n2)c1`, the GI50 is 10.3 µM with BT-549 breast, 6.23 µM in the assay on HS 578T breast, 11 µM with MCF7 breast and 8.39 µM with PC-3 prostate. Besides, the TGI with BT-549 breast, in the assay with HS 578T breast, with MCF7 breast and in the assay on PC-3 prostate was more than 25 µM throughout.

For `C=C1CC2(OC1=O)C(=O)N(CCCN1C(=O)C3(CC(=C)C(=O)O3)c3ccccc31)c1ccccc12` (stereo not given), the GI50 was 2.69 µM in the assay with BT-549 breast, 3.43 µM in the assay on HS 578T breast, 1.4 µM in the assay on MCF7 breast and 2.79 µM in the assay on PC-3 prostate. The TGI was determined as 9.65 µM in the assay on BT-549 breast, 51.5 µM in the assay on HS 578T breast, 4.45 µM in the assay on MCF7 breast and 10.3 µM in the assay with PC-3 prostate.

In the case of `CCN(CC)CCNC(=O)c1c(C)[nH]c(/C=C2\C(=O)Nc3ccc(F)cc32)c1C`, the GI50 is 4.84 µM and 3.32 µM and 3.67 µM in the assay on BT-549 breast; 3.01 µM and 3.57 µM and 2.4 µM with HS 578T breast; 1.93 µM and 2.23 µM and 2.05 µM in the assay on MCF7 breast; 1.84 µM and 3.82 µM and 2.9 µM in the assay on PC-3 prostate. The TGI is > 10 µM and 6.12 µM and 12.6 µM in the assay with BT-549 breast; > 10 µM and 17.7 µM and 15.3 µM with HS 578T breast; > 10 µM and 4.88 µM and 11.9 µM in the assay with MCF7 breast; > 10 µM and 20 µM and 14.5 µM in the assay with PC-3 prostate.

Consider `COc1ccccc1-c1cc(=O)c2ccc(C)nc2[nH]1`, for which the TGI with BT-549 breast, in the assay with HS 578T breast, in the assay on MCF7 breast and with PC-3 prostate was more than 100 µM in each case. Further, in the assay with PC-3 prostate, the GI50 is more than 100 µM.

With `O=S(=O)(CCOCc1ccc(-c2ccc3ncnc(Nc4ccc(OCc5cccc(F)c5)c(Cl)c4)c3c2)o1)c1ccccc1`, the GI50 in the assay with BT-549 breast is more than 25 µM; in the assay on HS 578T breast, more than 11 µM; in the assay on MCF7 breast it was more than 25 µM; in the assay with PC-3 prostate it was more than 25 µM. Moreover, the TGI in the assay on BT-549 breast, in the assay on HS 578T breast, with MCF7 breast and in the assay with PC-3 prostate was more than 25 µM each time.

As to `CCCCCCCCCCCC[n+]1ccccc1` (tested in a mixture with another compound), the GI50 was 0.268 µM with BT-549 breast, 1.71 µM with HS 578T breast, 1.04 µM in the assay with MCF7 breast and 0.208 µM in the assay with PC-3 prostate. The TGI came out at 1.06 µM in the assay on BT-549 breast, 5.15 µM in the assay with HS 578T breast, 5.5 µM in the assay on MCF7 breast and 0.937 µM in the assay on PC-3 prostate.

For the compound `CCC(=C(c1ccc(OCCCN(C)C)cc1)c1ccc(OCCCN(C)C)cc1)c1ccc(Cl)cc1`, the GI50 in the assay with BT-549 breast was 2.54 µM; in the assay on HS 578T breast, 2.3 µM; in the assay on MCF7 breast, 0.216 µM; in the assay on PC-3 prostate, 1.09 µM. The TGI stood at 4.94 µM with BT-549 breast, 5.35 µM in the assay on HS 578T breast, 0.524 µM in the assay with MCF7 breast and 3.39 µM with PC-3 prostate.

`Cc1cc(Nc2nc(SCc3ccc(C(=O)Nc4ccc(F)cc4N)cc3)nn3cccc23)n[nH]1`: the GI50 with BT-549 breast was 0.296 µM; with HS 578T breast, 0.429 µM; in the assay on MCF7 breast it was 0.0518 µM; in the assay on PC-3 prostate, 0.355 µM. In addition, the TGI with BT-549 breast is 7 µM; in the assay on HS 578T breast, more than 100 µM; in the assay with MCF7 breast it was 29.3 µM; in the assay with PC-3 prostate, 44.2 µM.
